Consider three compounds from ChEMBL document CHEMBL1146153, “A metabolically stable tight-binding transition-state inhibitor of glyoxalase-I” (Bioorg Med Chem Lett, 2006).

Series [1] is described as follows: Stability against equine kidney gamma-glutamyltranspeptidase mediated breakdown at pH 8.4 after 15 mins. Type of series: ADME, tissue-based. To be noted: pH 8.4, 0.25 h.
Series [2] has as its target T1, Glyoxalase I (Saccharomyces cerevisiae S288c, UniProt P50107).
T1 sequence (P50107 whole entry): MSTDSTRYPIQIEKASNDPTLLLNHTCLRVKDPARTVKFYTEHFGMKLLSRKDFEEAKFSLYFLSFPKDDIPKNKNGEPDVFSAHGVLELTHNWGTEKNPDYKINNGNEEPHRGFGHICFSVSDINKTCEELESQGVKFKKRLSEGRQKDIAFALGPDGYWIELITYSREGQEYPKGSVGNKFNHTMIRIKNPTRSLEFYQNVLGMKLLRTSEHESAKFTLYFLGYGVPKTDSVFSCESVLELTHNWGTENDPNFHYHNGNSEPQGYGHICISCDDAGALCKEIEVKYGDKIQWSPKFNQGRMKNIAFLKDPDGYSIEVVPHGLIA
In words: Inhibition of yeast glyoxalase1.

Series [3] is described as follows: Stability against equine kidney gamma-glutamyltranspeptidase mediated breakdown at pH 8.4 after 15 hrs. To be noted: pH 8.4, 15 h. Type of series: ADME.

Structures are written as SMILES.

On to `N[C@@H](CCC(=O)N[C@@H](CSC(=O)N(O)c1ccc(Br)cc1)C(=O)NCC(=O)O)C(=O)O`, for which the Activity result in series [1] was “Not Active”. The same measure, in the same setting: the same measure for `N[C@@H](CCC(=O)N[C@@H](CSCc1ccc(Br)cc1)C(=O)NCC(=O)O)C(=O)O`: “Not Active”.

In general, Ki refers to a dissociation constant, usually derived from enzyme kinetics or from competition with a known ligand. Consider `N[C@@H](CNC(=O)N[C@@H](CSC(=O)N(O)c1ccc(Br)cc1)C(=O)NCC(=O)O)C(=O)O`, for which the affinity in series [2] corresponds to a Ki of 2190 nM. Also, the Stability entry in series [3] was “Stable”.
